Source: patent publication US12344603B2 (Genentech, Inc., priority 2020, dated 2025)
Counter-ions that a name gives are not always drawn.

Target: IRE1α (Homo sapiens (Human), UniProt O75460, D688N)
Test: IRE1α TR-FRET competition binding assay (IRE1α HTRF)
Conditions: TR-FRET competition binding to kinase domain of IRE1α
Summary of the method: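 Kinase domain (0.25 nM) pre-bound to 2 nM Eu anti-His antibody for 1 h at 4° C in HEPES pH 7.5/MgCl2/Brij 35/DTT/gamma globulin buffer, then mixed with compounds and 2 nM Alexa 647 ATP-competitive probe. 1 h at room temperature; probe displacement read as TR-FRET (Ex 347 nm, Em 665/615 nm).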

Sequence of IRE1α (O75460 547-977 D688N): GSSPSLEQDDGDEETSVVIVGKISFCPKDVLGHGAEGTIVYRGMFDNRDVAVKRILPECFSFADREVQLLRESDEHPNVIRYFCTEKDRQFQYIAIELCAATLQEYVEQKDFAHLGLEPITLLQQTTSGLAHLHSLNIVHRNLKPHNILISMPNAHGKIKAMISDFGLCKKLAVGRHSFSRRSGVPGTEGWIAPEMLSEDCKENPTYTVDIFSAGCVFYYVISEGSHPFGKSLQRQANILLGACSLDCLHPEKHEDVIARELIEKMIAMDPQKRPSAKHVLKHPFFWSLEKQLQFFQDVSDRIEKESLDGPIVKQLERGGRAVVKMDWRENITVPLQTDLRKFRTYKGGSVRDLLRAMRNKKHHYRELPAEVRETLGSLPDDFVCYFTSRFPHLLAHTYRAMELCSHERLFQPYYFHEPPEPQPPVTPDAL

Row | SMILES | IC50 [nM]
1 | CC(C)n1c(=O)c(-c2ccc(NS(=O)(=O)Cc3ccccc3F)cn2)cc2cnc(N[C@@H]3CNC[C@@H](F)C3)nc21 [Compound 95, 1-(2-Fluorophenyl)-N-(6-(2-(((3S,5S)-5-fluoropiperidin-3-yl)amino)-8-isopropyl-7-oxo-7,8-dihydropyrido[2,3-d]pyrimidin-6-yl)pyridin-3-yl)methanesulfonamide] | 0.46
2 | CC(C)n1c(=O)c(-c2cc(F)c(NS(=O)(=O)CCC(F)(F)F)c(F)c2)nc2cnc(N[C@H]3CC[C@H](N(C)C)[C@@H](F)C3)nc21 (stereo in doubt) [Compound 168A, N-(4-(2-((4-(Dimethylamino)-3-fluorocyclohexyl)amino)-8-isopropyl-7-oxo-7,8-dihydropteridin-6-yl)-2,6-difluorophenyl)-3,3,3-trifluoropropane-1-sulfonamide] | 0.24
3 | Cc1ccc(CS(=O)(=O)Nc2c(F)cc(-c3nc4cnc(N[C@@H]5CNC[C@@H](F)C5)nc4n(C(C)C)c3=O)c(F)c2F)cc1 [Compound 170, 1-p-Tolyl-N-(2,3,6-trifluoro-4-(2-(((3S,5S)-5-fluoropiperidin-3-yl)amino)-8-isopropyl-7-oxo-7,8-dihydropteridin-6-yl)phenyl)methanesulfonamide hydrochloride] | 0.13
4 | CC(C)n1c(=O)c(-c2cc(F)c(NS(=O)(=O)Cc3ccccc3)c(F)c2F)cc2cnc(N[C@H]3CC[C@H](N)CC3)nc21 [Compound 56, N-(4-(2-(((1r,4r)-4-Aminocyclohexyl)amino)-8-isopropyl-7-oxo-7,8-dihydropyrido[2,3-d]pyrimidin-6-yl)-2,3,6-trifluorophenyl)-1-phenylmethanesulfonamide] | 0.17
5 | CC(C)n1c(=O)c(-c2ccc(NS(=O)(=O)c3ccccc3)nc2)cc2cnc(N[C@H]3CC[C@H](N(C)C)CC3)nc21 [Compound 106, N-(5-(2-(((1r,4r)-4-(Dimethylamino)cyclohexyl)amino)-8-isopropyl-7-oxo-7,8-dihydropyrido[2,3-d]pyrimidin-6-yl)pyridin-2-yl)benzenesulfonamide] | 0.15
6 | CC(C)n1c(=O)c(-c2ccc(NS(=O)(=O)CC3CCCCC3)c(F)c2)nc2cnc(N[C@H]3CC[C@H](N(C)C)CC3)nc21 [Example 269, 1-Cyclohexyl-N-[4-[2-[[4-(dimethylamino)cyclohexyl]amino]-8-isopropyl-7-oxo-pteridin-6-yl]-2-fluoro-phenyl]methanesulfonamide] | 0.2
7 | O=c1c(-c2ccc(NS(=O)(=O)Cc3ccccc3)c(F)c2F)cc2cnc(N[C@@H]3CNC[C@@H](F)C3)nc2n1CC1CC1 [Compound 52, N-(4-(8-(cyclopropylmethyl)-2-(((3S,5S)-5-fluoropiperidin-3-yl)amino)-7-oxo-7,8-dihydropyrido[2,3-d]pyrimidin-6-yl)-2,3-difluorophenyl)-1-phenylmethanesulfonamide trifluoroacetate salt] | 0.8
8 | Cc1ccc(CS(=O)(=O)Nc2c(F)cc(-c3cc4cnc(N[C@@H]5CNC[C@@H](F)C5)nc4n(C(C)C)c3=O)c(F)c2F)c(C#N)c1 [Compound 107, 1-(2-Cyano-4-methylphenyl)-N-(2,3,6-trifluoro-4-(2-(((3S,5S)-5-fluoropiperidin-3-yl)amino)-8-isopropyl-7-oxo-7,8-dihydropyrido[2,3-d]pyrimidin-6-yl)phenyl)methanesulfonamide] | 0.13
9 | CC(C)n1c(=O)c(-c2ccc(NS(=O)(=O)CC3CC(F)(F)C3)c(F)c2)nc2cnc(N[C@H]3CC[C@H](N(C)CCF)CC3)nc21 [Compound 180, 1-(3,3-Difluorocyclobutyl)-N-(2-fluoro-4-(2-(((1r,4r)-4-((2-fluoroethyl)(methyl)amino)cyclohexyl)amino)-8-isopropyl-7-oxo-7,8-dihydropteridin-6-yl)phenyl)methanesulfonamide] | 0.29
10 | CC(C)n1c(=O)c(-c2ccc(NS(=O)(=O)CCC(F)(F)F)c(F)c2)cc2cnc(NC3CCC4(CC3)CNC4)nc21 [Example 220, N-(4-(2-((2-azaspiro[3.5]nonan-7-yl)amino)-8-isopropyl-7-oxo-7,8-dihydropyrido[2,3-d]pyrimidin-6-yl)-2-fluorophenyl)-3,3,3-trifluoropropane-1-sulfonamide] | 5
11 | CC[C@@H](C)n1c(=O)c(-c2ccc(NS(=O)(=O)CCC(F)(F)F)c(F)c2)cc2cnc(N[C@H]3CC[C@H](N(C)C)CC3)nc21 (single isomer, unassigned) [Compound 203] | 0.21
12 | CC(C)n1c(=O)c(-c2ccc(NS(=O)(=O)Cc3ccccc3)c(F)c2)nc2cnc(N[C@H]3CC[C@H](N(C)C)[C@@H](F)C3)nc21 (stereo in doubt) [Compound 192A, N-(4-(2-((4-(Dimethylamino)-3-fluorocyclohexyl)amino)-8-isopropyl-7-oxo-7,8-dihydropteridin-6-yl)-2-fluorophenyl)-1-phenylmethanesulfonamide] | 0.11

Further compounds by falling IC50, results first:

Row | IC50 [nM] | SMILES
13 | 5.4 | CC(C)n1c(=O)c(-c2ccc(NS(=O)(=O)CCC(F)(F)F)c(F)c2)cc2cnc(NC3CCC(O)C(N(C)C)C3)nc21 (stereo not shown) [Example 225, N-(4-(2-((3-(Dimethylamino)-4-hydroxycyclohexyl)amino)-8-isopropyl-7-oxo-7,8-dihydropyrido[2,3-d]pyrimidin-6-yl)-2-fluorophenyl)-3,3,3-trifluoropropane-1-sulfonamide]
14 | 1.5 | CCCS(=O)(=O)Nc1ccc(-c2nc3cnc(N[C@@H]4CNC[C@H](CF)C4)nc3n(C(C)C)c2=O)cc1F [Compound 79, N-[2-Fluoro-4-[2-[[(3S,5R)-5-(fluoromethyl)-3-piperidyl]amino]-8-isopropyl-7-oxo-pteridin-6-yl]phenyl]propane-1-sulfonamide]
15 | 0.98 | CC(C)n1c(=O)c(-c2cc(F)c(NS(=O)(=O)CCC(C)(F)F)c(F)c2F)cc2cnc(N[C@H]3CC[C@H](N(C)C)CC3)nc21 [Compound 33, N-(4-(2-(((1r,4r)-4-(Dimethylamino)cyclohexyl)amino)-8-isopropyl-7-oxo-7,8-dihydropyrido[2,3-d]pyrimidin-6-yl)-2,3,6-trifluorophenyl)-3,3-difluorobutane-1-sulfonamide]
16 | 0.39 | CC(C)n1c(=O)c(-c2cc(F)c(NS(=O)(=O)Cc3ccn(C)n3)c(F)c2F)cc2cnc(N[C@@H]3CNC[C@@H](F)C3)nc21 [Compound 38, 1-(1-Methyl-1H-pyrazol-3-yl)-N-(2,3,6-trifluoro-4-(2-(((3S,5S)-5-fluoropiperidin-3-yl)amino)-8-isopropyl-7-oxo-7,8-dihydropyrido[2,3-d]pyrimidin-6-yl)phenyl)methanesulfonamide]
17 | 0.37 | CCn1c(=O)c(-c2cc(F)c(NS(=O)(=O)Cc3ccc(C#N)cc3)c(F)c2F)cc2cnc(N[C@@H]3CNC[C@@H](F)C3)nc21 [Compound 47, 1-(4-cyanophenyl)-N-(4-(8-ethyl-2-(((3S,5S)-5-fluoropiperidin-3-yl)amino)-7-oxo-7,8-dihydropyrido[2,3-d]pyrimidin-6-yl)-2,3,6-trifluorophenyl)methanesulfonamide]
18 | 0.31 | CC(C)n1c(=O)c(-c2ccc(NS(=O)(=O)CCC(F)(F)F)nc2)nc2cnc(N[C@H]3CC[C@H](N(C)CCF)CC3)nc21 [Compound 187, 3,3,3-Trifluoro-N-(5-(2-(((1r,4r)-4-((2-fluoroethyl)(methyl)amino)cyclohexyl)amino)-8-isopropyl-7-oxo-7,8-dihydropteridin-6-yl)pyridin-2-yl)propane-1-sulfonamide]
19 | 0.28 | CC(C)n1c(=O)c(-c2ccc(NS(=O)(=O)Cc3ccccc3)c(F)c2F)cc2cnc(N[C@@H]3CNC[C@@H](F)C3)nc21 [Compound 9, N-(2,3-Difluoro-4-(2-(((3S,5S)-5-fluoropiperidin-3-yl)amino)-8-isopropyl-7-oxo-7,8-dihydropyrido[2,3-d]pyrimidin-6-yl)phenyl)-1-phenylmethanesulfonamide]
20 | 0.2 | CC(C)n1c(=O)c(-c2ccc(NS(=O)(=O)CC3(C(C)(F)F)CC3)c(F)c2)nc2cnc(N[C@H]3CC[C@H](N(C)C)CC3)nc21 [Example 258, 1-[1-(1,1-Difluoroethyl)cyclopropyl]-N-[4-[2-[[4-(dimethylamino)cyclohexyl]amino]-8-isopropyl-7-oxo-pteridin-6-yl]-2-fluoro-phenyl]methanesulfonamide]
21 | 0.2 | CC(C)n1c(=O)c(-c2ccc(NS(=O)(=O)CCC(F)(F)F)nc2)cc2cnc(N[C@H]3CC[C@H](N(C)C)[C@H](F)C3)nc21 [Example 224]
22 | 0.18 | CC(C)n1c(=O)c(-c2ccc(NS(=O)(=O)c3ccccc3C#N)c(F)c2)nc2cnc(N[C@H]3CC[C@H](N(C)C)CC3)nc21 [Compound 190, 2-Cyano-N-(4-(2-(((1r,4r)-4-(dimethylamino)cyclohexyl)amino)-8-isopropyl-7-oxo-7,8-dihydropteridin-6-yl)-2-fluorophenyl)benzenesulfonamide]
23 | 0.16 | CC(C)n1c(=O)c(-c2ccc(NS(=O)(=O)Cc3ccc(F)cc3)c(F)c2)nc2cnc(N[C@@H]3CC[C@@H](N(C)C)[C@H](F)C3)nc21 (stereo in doubt) [Compound 181A, N-(4-(2-((4-(Dimethylamino)-3-fluorocyclohexyl)amino)-8-isopropyl-7-oxo-7,8-dihydropteridin-6-yl)-2-fluorophenyl)-1-(4-fluorophenyl)methanesulfonamide]
24 | 0.16 | CC(C)n1c(=O)c(-c2ccc(NS(=O)(=O)c3ccccc3Cl)nc2)cc2cnc(N[C@H]3CC[C@H](N(C)CCF)CC3)nc21 [Compound 146, 2-Chloro-N-(5-(2-(((1r,4r)-4-((2-fluoroethyl)(methyl)amino)cyclohexyl)amino)-8-isopropyl-7-oxo-7,8-dihydropyrido[2,3-d]pyrimidin-6-yl)pyridin-2-yl)benzenesulfonamide hydrochloride]
25 | 0.1 | CC(C)n1c(=O)c(-c2ccc(NS(=O)(=O)CCC3CCC3)c(F)c2)cc2cnc(N[C@H]3CC[C@H](N(C)C)CC3)nc21 [Example 231, 2-cyclobutyl-N-(4-(2-(((1r,4r)-4-(dimethyl-amino)cyclohexyl)-amino)-8-isopropyl-7-oxo-7,8-dihydropyrido-[2,3-d]pyrimidin-6-yl)-2-fluorophenyl)ethane-1-sulfonamide]
